# Experimental data from US9920032B2, “Heterocyclic compounds useful as pim kinase inhibitors” (Incyte Corporation, priority 2015, dated 2018).
# Key:
# Format in all cases: biochemical
# Pim-3 = Pim-3 (Homo sapiens (Human), UniProt Q86V86); test: Pim-3 kinase assay; details: 1 mM ATP; read-out: PIM3 IC50
# How it was run: (§1)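 Enzyme at 2.5 pM (Pim-1) or 1.25 pM (Pim-3) reacted 1 h at 25° C with 1 mM ATP and 0.05 μM biotinylated BAD peptide, pH 7.5. Phospho-Ser112 BAD detected by antibody/Protein-A acceptor and streptavidin donor bead proximity signal after EDTA quench and 1 h dark incubation.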
# Pim-2 = Pim-2 (Homo sapiens (Human), UniProt Q9P1W9); test: Pim-2 kinase assay; details: 1 mM ATP; read-out: PIM2 IC50
# How it was run: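 TR-FRET assay with 1 nM enzyme, 0.05 μM fluorescein-CREBtide and 1 mM ATP in Tris pH 7.5 buffer with MgCl2, DTT, BSA and Tween-20, run 2 h at 25° C. Stopped with EDTA and Tb-labelled anti-CREB pSer133 antibody, then read after 30 min at room temperature.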
# Pim-1 = Pim-1 (Homo sapiens (Human), UniProt P11309); test: Pim-1 kinase assay; details: 1 mM ATP; read-out: PIM1 IC50
# How it was run: as §1
# Chain of Pim-2 (Q9P1W9 whole entry): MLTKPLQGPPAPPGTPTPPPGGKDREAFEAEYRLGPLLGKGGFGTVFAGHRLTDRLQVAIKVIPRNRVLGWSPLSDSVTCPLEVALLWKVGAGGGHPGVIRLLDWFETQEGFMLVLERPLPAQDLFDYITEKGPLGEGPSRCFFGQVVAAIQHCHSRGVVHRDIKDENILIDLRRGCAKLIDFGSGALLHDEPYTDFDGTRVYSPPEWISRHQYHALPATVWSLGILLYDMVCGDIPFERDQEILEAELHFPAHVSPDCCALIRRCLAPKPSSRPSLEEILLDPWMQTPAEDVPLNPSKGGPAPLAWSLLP
# Chain of Pim-1 (P11309 whole entry): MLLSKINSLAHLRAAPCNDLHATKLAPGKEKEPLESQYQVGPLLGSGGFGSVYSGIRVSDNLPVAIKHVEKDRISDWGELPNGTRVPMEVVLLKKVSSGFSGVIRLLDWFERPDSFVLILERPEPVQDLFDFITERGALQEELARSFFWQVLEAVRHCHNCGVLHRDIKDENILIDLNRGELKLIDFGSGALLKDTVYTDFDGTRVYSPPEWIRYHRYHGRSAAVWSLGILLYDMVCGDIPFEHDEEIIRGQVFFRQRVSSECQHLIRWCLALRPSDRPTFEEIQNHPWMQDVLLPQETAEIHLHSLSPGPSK
SMILES,IC50 (Pim-3),IC50 (Pim-2),IC50 (Pim-1)
"C[C@@H]1C[C@H](N)C[C@H](c2ccncc2NC(=O)c2ccc(F)c3cc(N(C)c4ccccc4)cnc23)C1 [Example 83, N-(4-((1R,3S,5S)-3-Amino-5-methylcyclohexyl)pyridin-3-yl)-5-fluoro-3-(methyl(phenyl)amino)quinoline-8-carboxamide]",≤ 10 nM,≤ 100 nM,≤ 10 nM
"C[C@@H]1C[C@H](N)C[C@H](c2ccncc2NC(=O)c2ccc(F)c3cc(N4C5CCC4CC5)cnc23)C1 [Example 136, N-(4-((1R,3S,5S)-3-Amino-5-methylcyclohexyl)pyridin-3-yl)-3-(7-azabicyclo[2.2.1]heptan-7-yl)-5-fluoroquinoline-8-carboxamide]",≤ 10 nM,≤ 100 nM,≤ 10 nM
"C[C@@H]1C[C@H](N)C[C@H](c2ccncc2NC(=O)c2ccc(F)c3cc(N4CCCc5ccccc54)cnc23)C1 [Example 130, N-(4-((1R,3S,5S)-3-Amino-5-methylcyclohexyl)pyridin-3-yl)-5′-fluoro-3,4-dihydro-2H-1,3′-biquinoline-8′-carboxamide]",≤ 10 nM,100 to 1000 nM,≤ 10 nM
"CC1CN(c2cnc3c(C(=O)Nc4cnccc4[C@@H]4C[C@H](C)C[C@H](N)C4)ccc(F)c3c2)C(C)CO1 (stereo partly drawn) [Example 35, N-(4-((1R,3S,5S)-3-Amino-5-methylcyclohexyl)pyridin-3-yl)-3-(2,5-dimethylmorpholino)-5-fluoroquinoline-8-carboxamide]",10 to 50 nM,1000 to 10000 nM,≤ 10 nM
"C[C@@H]1C[C@H](N)C[C@H](c2ccncc2NC(=O)c2ccc(F)c3cc(N4C[C@@H](O)C[C@H]4C)cnc23)C1 [Example 164, N-(4-((1R,3S,5S)-3-Amino-5-methylcyclohexyl]pyridin-3-yl}-5-fluoro-3-[(2R,4S)-4-hydroxy-2-methylpyrrolidin-1-yl]quinoline-8-carboxamide]",≤ 10 nM,≤ 100 nM,≤ 10 nM
"C[C@@H]1C[C@H](N)C[C@H](c2ccncc2NC(=O)c2ccc(F)c3cc(NCCF)cnc23)C1 [Example 26, N-{4-[(1R,3S,5S)-3-Amino-5-methylcyclohexyl]pyridin-3-yl}-5-fluoro-3-[(2-fluoroethyl)amino]quinoline-8-carboxamide]",≤ 10 nM,≤ 100 nM,≤ 10 nM
"C[C@@H]1C[C@H](N)C[C@H](c2ccncc2NC(=O)c2ccc(F)c3cc(N4CC5(CCC5)C4)cnc23)C1 [Example 107, N-(4-((1R,3S,5S)-3-Amino-5-methylcyclohexyl)pyridin-3-yl)-5-fluoro-3-(2-azaspiro[3.3]heptan-2-yl)quinoline-8-carboxamide]",≤ 10 nM,≤ 100 nM,≤ 10 nM
"COc1ccncc1N(C)c1cnc2c(C(=O)Nc3cnccc3[C@@H]3C[C@H](C)C[C@H](N)C3)ccc(F)c2c1 [Example 150, N-(4-((1R,3S,5S)-3-Amino-5-methylcyclohexyl)pyridin-3-yl)-5-fluoro-3-((4-methoxypyridin-3-yl)(methyl)amino)quinoline-8-carboxamide]",≤ 10 nM,≤ 100 nM,≤ 10 nM
"COC(=O)N1CCN(c2cnc3c(C(=O)Nc4cnccc4[C@@H]4C[C@H](C)C[C@H](N)C4)ccc(F)c3c2)[C@@H](C)C1 [Example 88, (S)-Methyl 4-(8-(4-((1R,3S,5S)-3-amino-5-methylcyclohexyl)pyridin-3-ylcarbamoyl)-5-fluoroquinolin-3-yl)-3-methylpiperazine-1-carboxylate]",≤ 10 nM,≤ 100 nM,≤ 10 nM
C[C@@H]1C[C@H](N)C[C@H](c2ccncc2NC(=O)c2ccc(F)c3cc(N(C)C4CCCOC4)cnc23)C1 (stereo partly drawn) [Example 151],≤ 10 nM,≤ 100 nM,≤ 10 nM
"C[C@@H]1C[C@H](N)C[C@H](c2ccncc2NC(=O)c2ccc(F)c3cc(N4CCCC(O)CC4)cnc23)C1 (stereo partly drawn) [Example 104, N-(4-((1R,3S,5S)-3-Amino-5-methylcyclohexyl)pyridin-3-yl)-5-fluoro-3-(4-hydroxyazepan-1-yl)quinoline-8-carboxamide]",≤ 10 nM,≤ 100 nM,≤ 10 nM
CO[C@@H]1C[C@@H](C)N(c2cnc3c(C(=O)Nc4cnccc4[C@@H]4C[C@H](C)C[C@H](N)C4)ccc(F)c3c2)C1 [Example 156],≤ 10 nM,≤ 100 nM,≤ 10 nM
"C[C@@H]1C[C@H](N)C[C@H](c2ccncc2NC(=O)c2ccc(F)c3cc(N4CCc5ccccc54)cnc23)C1 [Example 79, N-(4-((1R,3S,5S)-3-Amino-5-methylcyclohexyl)pyridin-3-yl)-5-fluoro-3-(indolin-1-yl)quinoline-8-carboxamide]",≤ 10 nM,100 to 1000 nM,≤ 10 nM
"COC1(C)CN(c2cnc3c(C(=O)Nc4cnccc4[C@@H]4C[C@H](C)C[C@H](N)C4)ccc(F)c3c2)C1 [Example 118, N-(4-((1R,3S,5S)-3-Amino-5-methylcyclohexyl)pyridin-3-yl)-5-fluoro-3-(3-methoxy-3-methylazetidin-1-yl)quinoline-8-carboxamide]",≤ 10 nM,≤ 100 nM,≤ 10 nM
"CC1CCN(c2cnc3c(C(=O)Nc4cnccc4[C@@H]4C[C@H](C)C[C@H](N)C4)ccc(F)c3c2)CC1 [Example 46, N-(4-((1R,3S,5S)-3-Amino-5-methylcyclohexyl)pyridin-3-yl)-5-fluoro-3-(4-methylpiperidin-1-yl)quinoline-8-carboxamide]",≤ 10 nM,100 to 1000 nM,≤ 10 nM
"C[C@@H]1C[C@H](N)C[C@H](c2ccncc2NC(=O)c2ccc(F)c3cc(N(C)CC(F)F)cnc23)C1 [Example 42, N-(4-((1R,3S,5S)-3-Amino-5-methylcyclohexyl)pyridin-3-yl)-3-((2,2-difluoroethyl)(methyl)amino)-5-fluoroquinoline-8-carboxamide]",≤ 10 nM,≤ 100 nM,≤ 10 nM
"C[C@@H]1C[C@H](N)C[C@H](c2ccncc2NC(=O)c2ccc(F)c3cc(N(C)c4cnccc4C(F)(F)F)cnc23)C1 [Example 143, N-(4-((1R,3S,5S)-3-Amino-5-methylcyclohexyl)pyridin-3-yl)-5-fluoro-3-(methyl(4-(trifluoromethyl)pyridin-3-yl)amino)quinoline-8-carboxamide]",≤ 10 nM,≤ 100 nM,≤ 10 nM
"COC(=O)N1CCN(c2cnc3c(C(=O)Nc4cnccc4[C@@H]4C[C@H](C)C[C@H](N)C4)ccc(F)c3c2)[C@H](C)C1 [Example 89, (R)-Methyl 4-(8-(4-((1R,3S,5S)-3-amino-5-methylcyclohexyl)pyridin-3-ylcarbamoyl)-5-fluoroquinolin-3-yl)-3-methylpiperazine-1-carboxylate]",≤ 10 nM,≤ 100 nM,≤ 10 nM
"C[C@@H]1C[C@H](N)C[C@H](c2ccncc2NC(=O)c2ccc(F)c3cc(N(C)c4ccccc4F)cnc23)C1 [Example 97, N-(4-((1R,3S,5S)-3-Amino-5-methylcyclohexyl)pyridin-3-yl)-5-fluoro-3-((2-fluorophenyl)(methyl)amino)quinoline-8-carboxamide]",≤ 10 nM,≤ 100 nM,≤ 10 nM
COCCO[C@H]1CCN(c2cnc3c(C(=O)Nc4cnccc4[C@@H]4C[C@H](C)C[C@H](N)C4)ccc(F)c3c2)C[C@@H]1F [Example 163],≤ 10 nM,≤ 100 nM,≤ 10 nM
"C[C@@H]1C[C@H](N)C[C@H](c2ccncc2NC(=O)c2ccc(F)c3cc(N4CCN(C5CC5)C(=O)C4)cnc23)C1 [Example 114, N-(4-((1R,3S,5S)-3-Amino-5-methylcyclohexyl)pyridin-3-yl)-3-(4-cyclopropyl-3-oxopiperazin-1-yl)-5-fluoroquinoline-8-carboxamide]",≤ 10 nM,≤ 100 nM,≤ 10 nM
"C[C@@H]1C[C@H](N)C[C@H](c2ccncc2NC(=O)c2ccc(F)c3cc(N4CCOC(CO)C4)cnc23)C1 (stereo partly drawn) [Example 132, N-(4-((1R,3S,5S)-3-Amino-5-methylcyclohexyl)pyridin-3-yl)-5-fluoro-3-(2-(hydroxymethyl)morpholino)quinoline-8-carboxamide]",≤ 10 nM,100 to 1000 nM,≤ 10 nM
"C[C@@H]1C[C@H](N)C[C@H](c2ccncc2NC(=O)c2ccc(F)c3cc(N4CCC(F)(F)CC4)cnc23)C1 [Example 40, N-(4-((1R,3S,5S)-3-Amino-5-methylcyclohexyl)pyridin-3-yl)-3-(4,4-difluoropiperidin-1-yl)-5-fluoroquinoline-8-carboxamide]",≤ 10 nM,100 to 1000 nM,≤ 10 nM
"C[C@@H]1C[C@H](N)C[C@H](c2ccncc2NC(=O)c2ccc(F)c3cc(N(C)C4CCOC4)cnc23)C1 (stereo partly drawn) [Example 23, N-{4-[(1R,3S,5S)-3-Amino-5-methylcyclohexyl]pyridin-3-yl}-5-fluoro-3-[methyl(tetrahydrofuran-3-yl)amino]quinoline-8-carboxamide]",≤ 10 nM,100 to 1000 nM,≤ 10 nM
"C[C@@H]1C[C@H](N)C[C@H](c2ccncc2NC(=O)c2ccc(F)c3cc(N4CC[C@H]4C)cnc23)C1 [Example 167, N-(4-((1R,3S,5S)-3-Amino-5-methylcyclohexyl)pyridin-3-yl)-5-fluoro-3-((R)-2-methylazetidin-1-yl)quinoline-8-carboxamide]",≤ 10 nM,≤ 100 nM,≤ 10 nM
